According to PubChem BioAssay AID292 (DTP/NCI, 2004):
Several values for one entry are separate records, joined by “and”; a condition that tells them apart may be missing. Equal values may be shown once. Inconclusive results and toxic doses are left out.

Tested on: B6C3F1 mice, ip Sarcoma M5076, median survival T/C
Test: NCI In Vivo Anticancer Drug Screen. Data for tumor model Sarcoma M5076 (intraperitoneal) in B6C3F1 mice
Conditions: endpoint: median survival time, schedule: Q04DX004 (ip), higher = longer survival
Outline: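 Survival measured in treated (T) and vehicle control (C) mice with transplantable tumour; result given as T divided by C.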

[1] = dose: 2.0 mg/kg/injection, vehicle: saline with Tween-80
[2] = dose: 4.0 mg/kg/injection, vehicle: saline with Tween-80
[3] = dose: 12.5 mg/kg/injection, vehicle: saline with Tween-80
[4] = dose: 25.0 mg/kg/injection, vehicle: saline with Tween-80
[5] = dose: 50.0 mg/kg/injection, vehicle: saline with Tween-80
[6] = dose: 100.0 mg/kg/injection, vehicle: saline with Tween-80
[7] = dose: 25.0 mg/kg/injection, vehicle: water
[8] = dose: 50.0 mg/kg/injection, vehicle: water
[9] = dose: 100.0 mg/kg/injection, vehicle: water
[10] = dose: 200.0 mg/kg/injection, vehicle: water
[11] = dose: 50.0 mg/kg/injection, vehicle: Klucel (hydroxypropylcellulose) (HPC)
[12] = dose: 100.0 mg/kg/injection, vehicle: Klucel (hydroxypropylcellulose) (HPC)
[13] = dose: 200.0 mg/kg/injection, vehicle: saline with Tween-80
[14] = dose: 400.0 mg/kg/injection, vehicle: saline with Tween-80
[15] = dose: 800.0 mg/kg/injection, vehicle: saline with Tween-80

With `C=COC(=O)C(Cc1ccccc1)NC(=O)OCc1ccccc1` (centres undefined) the T/C (dose: 75.0 mg/kg/injection, vehicle: saline with Tween-80) was 91 % of control, the T/C (dose: 150.0 mg/kg/injection, vehicle: saline with Tween-80) was 111 % of control and the T/C (dose: 300.0 mg/kg/injection, vehicle: saline with Tween-80) was 113 % of control. The T/C (dose: 600.0 mg/kg/injection, vehicle: saline with Tween-80) was 91 % of control and the T/C (dose: 1200.0 mg/kg/injection, vehicle: saline with Tween-80) was 88 % of control.

With `CC1=C(/C=C/C(C)=C/C=C/C(C)=C/C=O)C(C)(C)CCC1` the T/C (dose: 75.0 mg/kg/injection, vehicle: saline + alcohol) was 104 % of control and the T/C (dose: 150.0 mg/kg/injection, vehicle: saline + alcohol) was 96 % of control.

`CC[C@@]1(O)C(=O)OCc2c1cc1n(c2=O)Cc2cc3c(N)cccc3nc2-1` was tested, and the T/C (dose: 0.25 mg/kg/injection, vehicle: saline with Tween-80) was 121 % of control, the T/C (dose: 1.0 mg/kg/injection, vehicle: saline with Tween-80) was 164 % of control and 168 % of control and the T/C [1] was 208 % of control. For the same compound, the T/C [2] was 177 % of control.

For `COc1cccc(-n2cc[n+](C)c2/C=N/O)c1`, the T/C [3] was 108 % of control, the T/C [4] was 101 % of control and the T/C [5] was 108 % of control. The T/C [6] was 100 % of control.

`Nc1ncnc2c1ncn2C1CC2[O][Sn]([c]3ccccc3)([c]3ccccc3)[O]CC2O1` (centres undefined) was tested, and the T/C (dose: 31.13 mg/kg/injection, vehicle: distilled water + Tween-80) was 95 % of control, the T/C (dose: 62.5 mg/kg/injection, vehicle: distilled water + Tween-80) was 92 % of control and the T/C (dose: 125.0 mg/kg/injection, vehicle: distilled water + Tween-80) was 101 % of control. For the same compound, the T/C (dose: 250.0 mg/kg/injection, vehicle: distilled water + Tween-80) was 101 % of control and the T/C (dose: 500.0 mg/kg/injection, vehicle: distilled water + Tween-80) was 104 % of control.

With `O=C1N=NC2=C1c1c3ccccc3c(O)n1CC2` the T/C [7] was 97 % of control, the T/C [8] was 95 % of control and the T/C [9] was 93 % of control. The T/C [10] was 100 % of control.

`C/C=C\C1OC1(C)c1cc(=O)c2c(C)cc3c(c2o1)C(=O)c1c(O)c(C2CC(C)(N(C)C)C(OC(C)=O)C(C)O2)cc(C2CC(N(C)C)C(O)C(C)O2)c1C3=O` (centres undefined) was tested, and the T/C (dose: 0.19 mg/kg/injection, vehicle: saline + alcohol) was 105 % of control, the T/C (dose: 0.38 mg/kg/injection, vehicle: saline + alcohol) was 110 % of control and the T/C (dose: 0.75 mg/kg/injection, vehicle: saline + alcohol) was 120 % of control. For the same compound, the T/C (dose: 3.0 mg/kg/injection, vehicle: saline + alcohol) was 156 % of control.

With `COc1cc2c(c3c1c(=O)c1cccc(F)c1n3C)C=CC(C)(C)O2` the T/C [11] was 112 % of control and the T/C [12] was 120 % of control.

In the case of `O=C1C2CC(Cl)C(SSC3CC4C(=O)N(SC(Cl)(Cl)C(Cl)Cl)C(=O)C4CC3Cl)CC2C(=O)N1SC(Cl)(Cl)C(Cl)Cl` (centres undefined), the T/C [3] is reported as 97 % of control, the T/C [4] is reported as 95 % of control and the T/C [5] is reported as 98 % of control and 105 % of control. The T/C [6] was 90 % of control and 97 % of control, the T/C [13] was 102 % of control and 117 % of control and the T/C [14] was 110 % of control. For the same compound, the T/C [15] was 109 % of control.

`Oc1c(Cl)cc(Cl)cc1C1Nc2ccccc2-n2cccc21` (centres undefined) was tested, and the T/C [3] was 90 % of control, the T/C [4] was 88 % of control and the T/C [5] was 86 % of control and 92 % of control. The T/C [14] was 87 % of control and the T/C [15] was 91 % of control.

In the case of `O=C(Nc1ccc2ccccc2c1)C1C(=O)C(=O)N(c2ccc3ccccc3c2)C1=O` (centres undefined), the T/C [11] is reported as 100 % of control, the T/C [12] is reported as 100 % of control and the T/C (dose: 200.0 mg/kg/injection, vehicle: Klucel (hydroxypropylcellulose) (HPC)) is reported as 93 % of control.

`Nc1ccn(C2CC3[O][Sn]([c]4ccccc4)([c]4ccccc4)[O]CC3O2)c(=O)n1` (centres undefined) was tested, and the T/C (dose: 25.0 mg/kg/injection, vehicle: distilled water + Tween-80) was 100 % of control, the T/C (dose: 50.0 mg/kg/injection, vehicle: distilled water + Tween-80) was 100 % of control and the T/C (dose: 100.0 mg/kg/injection, vehicle: distilled water + Tween-80) was 105 % of control. For the same compound, the T/C (dose: 200.0 mg/kg/injection, vehicle: distilled water + Tween-80) was 100 % of control and the T/C (dose: 400.0 mg/kg/injection, vehicle: distilled water + Tween-80) was 95 % of control.

With `O=C(O)CCCc1ccc(N(CCCl)CCCl)cc1` the T/C [1] was 108 % of control, the T/C [2] was 114 % of control and 123 % of control and the T/C (dose: 8.0 mg/kg/injection, vehicle: saline with Tween-80) was 118 % of control.

With `O=C(O)c1cc(C(=O)O)c(C(=O)O)cc1C(=O)O.[NH2-].[NH2-].[NH2-].[NH2-].[Pt+2].[Pt+2]` the T/C (dose: 0.12 mg/kg/injection, vehicle: water) was 99 % of control, the T/C (dose: 0.25 mg/kg/injection, vehicle: water) was 112 % of control and the T/C (dose: 0.5 mg/kg/injection, vehicle: water) was 100 % of control. For the same compound, the T/C (dose: 1.0 mg/kg/injection, vehicle: water) was 97 % of control, the T/C (dose: 2.0 mg/kg/injection, vehicle: water) was 94 % of control and the T/C (dose: 4.0 mg/kg/injection, vehicle: water) was 103 % of control and 108 % of control. For the same compound, the T/C (dose: 8.0 mg/kg/injection, vehicle: water) was 113 % of control and 119 % of control, the T/C (dose: 32.0 mg/kg/injection, vehicle: water) was 150 % of control and 241 % of control and the T/C (dose: 64.0 mg/kg/injection, vehicle: water) was 250 % of control.

For `COc1c(O)cc2c(c1OC)-c1ccc(SC)c(=O)cc1C(NC(C)=O)CC2` (centres undefined), the T/C (dose: 5.0 mg/kg/injection, vehicle: Klucel (hydroxypropylcellulose) (HPC)) was 154 % of control and 196 % of control and the T/C (dose: 10.0 mg/kg/injection, vehicle: Klucel (hydroxypropylcellulose) (HPC)) was 235 % of control and 237 % of control.

`N#Cc1c(N)[nH]c2ccc(Sc3ccccc3)cc12` was tested, and the T/C (dose: 6.25 mg/kg/injection, vehicle: saline with Tween-80) was 101 % of control, the T/C [3] was 112 % of control and the T/C (dose: 15.0 mg/kg/injection, vehicle: saline with Tween-80) was 108 % of control. The T/C [4] was 109 % of control, the T/C (dose: 30.0 mg/kg/injection, vehicle: saline with Tween-80) was 97 % of control and the T/C (dose: 36.0 mg/kg/injection, vehicle: saline with Tween-80) was 104 % of control. For the same compound, the T/C [5] was 114 % of control, the T/C (dose: 60.0 mg/kg/injection, vehicle: saline with Tween-80) was 95 % of control and 104 % of control and the T/C [6] was 116 % of control. For the same compound, the T/C (dose: 120.0 mg/kg/injection, vehicle: saline with Tween-80) was 110 % of control and the T/C (dose: 240.0 mg/kg/injection, vehicle: saline with Tween-80) was 113 % of control.

`Cc1cccc(-n2c(CC#N)n[nH]c2=S)c1` was tested, and the T/C [5] was 115 % of control, the T/C [6] was 109 % of control and the T/C [13] was 96 % of control. The T/C [14] was 106 % of control and the T/C [15] was 88 % of control.

With `O=S(Cl)C(Cl)=C(Cl)Cl` (centres undefined) the T/C (dose: 25.0 mg/kg/injection, vehicle: Klucel (hydroxypropylcellulose) (HPC)) was 86 % of control.

For `CN(C)CCOCC(O)(c1ccccc1)c1ccccc1`, the T/C (dose: 37.5 mg/kg/injection, vehicle: saline) was 100 % of control and the T/C (dose: 75.0 mg/kg/injection, vehicle: saline) was 100 % of control.

`NCCCNCCCCNC(=O)C(O)NC(=O)CC(O)CCCCN=C(N)N` (centres undefined) was tested, and the T/C (dose: 50.0 mg/kg/injection, vehicle: saline) was 117 % of control and the T/C (dose: 100.0 mg/kg/injection, vehicle: saline) was 115 % of control.

With `CCN(CC)CCN1C(=O)C2C3C=CC(C2C1=O)C1C2C(=O)N(CCN(CC)CC)C(=O)C2C31` (centres undefined) the T/C [7] was 95 % of control, the T/C [8] was 99 % of control and the T/C [9] was 97 % of control. The T/C [10] was 99 % of control.
